Source: BindingDB's records for PubMed 7891350 (Parke-Davis Pharmaceutical Research, 1995)

Experiments:
[1] = target: T1, Type-2 angiotensin II receptor (Rattus norvegicus, UniProt P35351)
T1 sequence (P35351 whole entry): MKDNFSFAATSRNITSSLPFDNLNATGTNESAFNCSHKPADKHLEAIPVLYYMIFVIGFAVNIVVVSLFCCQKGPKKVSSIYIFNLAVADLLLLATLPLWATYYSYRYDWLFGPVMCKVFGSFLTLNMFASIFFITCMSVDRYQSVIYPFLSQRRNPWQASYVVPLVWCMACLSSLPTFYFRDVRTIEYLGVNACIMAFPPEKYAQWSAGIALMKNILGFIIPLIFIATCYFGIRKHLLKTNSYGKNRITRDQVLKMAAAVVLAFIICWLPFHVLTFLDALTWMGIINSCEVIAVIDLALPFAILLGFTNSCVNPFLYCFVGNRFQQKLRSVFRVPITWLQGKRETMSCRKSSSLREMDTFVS

[2] = target: T2, Type-1 angiotensin II receptor A (Rattus norvegicus, UniProt P25095)
T2 sequence (P25095 whole entry): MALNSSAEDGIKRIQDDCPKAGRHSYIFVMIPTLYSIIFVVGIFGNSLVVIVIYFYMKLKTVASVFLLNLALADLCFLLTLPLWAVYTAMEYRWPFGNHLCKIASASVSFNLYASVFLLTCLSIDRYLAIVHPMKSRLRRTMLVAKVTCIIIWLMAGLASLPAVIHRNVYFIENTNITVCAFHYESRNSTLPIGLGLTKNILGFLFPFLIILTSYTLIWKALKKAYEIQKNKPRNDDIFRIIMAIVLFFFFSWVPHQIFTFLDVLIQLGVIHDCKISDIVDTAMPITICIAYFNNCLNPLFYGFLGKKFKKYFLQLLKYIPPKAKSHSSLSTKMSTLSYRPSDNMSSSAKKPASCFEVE

| SMILES | Ki [1] [µM] | Ki [2] [µM] |
| --- | --- | --- |
| CCCc1nc(-n2cccc2C(=O)C(F)(F)F)c(C(=O)O)n1Cc1ccc(-c2ccccc2-c2nn[nH]n2)cc1 | > 10 | – |
| CCc1nc2c(C)cc(C)nc2n1-c1ccc(-c2ccccc2-c2nnn[nH]2)cc1 [CAS_123856] | > 10 | 0.0007 |
| CCCCc1ncc(/C=C(\Cc2cccs2)C(=O)O)n1Cc1ccc(C(=O)O)cc1 [(E)-3-[2-n-butyl-1-{(4-carboxyphenyl)methyl}-1H-imidazol-5-yl]-2-(2-thienyl)methyl-2-propenoic acid] | > 10 | – |
